Measurements reported in patent publication US12421220B2, “Bicyclic-substituted glutarimide cereblon binders” (C4 THERAPEUTICS, INC., priority 2022, dated 2025).
Read-outs that look alike come from different tables or passages of the source.

Tests used:
CRBN-DDB1 (CRBN_DDB1.3) [1] = target: T1, CRBN-DDB1 (CRBN_DDB1.3) (Homo sapiens, UniProt Q96SW2); assay: Fluorescence polarization (FP) binding assay, CRBN_DDB1.3 construct; settings: 0.05% PA, 0.1% BSA
Protocol: (§1) Example 2: Fluorescence Polarization (FP) Assay for Screening Compound Ligand Binders of CRBN-DDB1
(§2) Measuring compound ligand binding to CRBN-DDB 1 was carried out using an established sensitive and quantitative in vitro fluorescence polarization (FP) based binding assay. (See, I. J. Enyedy et al, J. Med. Chem., 44: […] [2001]). Compounds were dispensed from serially diluted DMSO stock into black 384-well compatible fluorescence polarization plates using an Echo acoustic dispenser. Compound binding to CRBN-DDB 1 was measured by displacement of an established CRBN binding ligand conjugated to an Alexa Fluor® dye (probe). A […] mixture containing 10nM CRBN-DDB1 and 5 nM probe in 50 mM Hepes, pH 7.4, 200 mM NaCl, 1% DMSO, 0.1% BSA and 0.05% o pluronic acid-127 acid was added to wells containing compound and incubated at room temperature for 60 min. Matching control wells excluding CRBN-DDB 1 were used to correct for background fluorescence. Plates were read on an Envision plate reader with appropriate FP filter sets. The corrected S (perpendicular) and P (parallel) values were used to calculate fluorescence polarization (FP) with the following equation: FP=1000*(S−G*P)/(S+G*P).
(§3) The fractional amount of bound probe (FB) to CRBN-DDB 1 as a function of compound concentration was fitted according to Wang; FEBS Letters 360, (1995), 111-114 to obtain fits for parameter offsets and binding constant (KA) of competitor compound.

CRBN-DDB1 (CRBN_DDB1.7) = CRBN-DDB1 (CRBN_DDB1.7) (Homo sapiens, UniProt Q96SW2); assay: Fluorescence polarization (FP) binding assay, CRBN_DDB1.7 construct; settings: 0.05% PA, 0.1% BSA
Chain of CRBN-DDB1 (CRBN_DDB1.7) (Q96SW2 81-442 limits assumed): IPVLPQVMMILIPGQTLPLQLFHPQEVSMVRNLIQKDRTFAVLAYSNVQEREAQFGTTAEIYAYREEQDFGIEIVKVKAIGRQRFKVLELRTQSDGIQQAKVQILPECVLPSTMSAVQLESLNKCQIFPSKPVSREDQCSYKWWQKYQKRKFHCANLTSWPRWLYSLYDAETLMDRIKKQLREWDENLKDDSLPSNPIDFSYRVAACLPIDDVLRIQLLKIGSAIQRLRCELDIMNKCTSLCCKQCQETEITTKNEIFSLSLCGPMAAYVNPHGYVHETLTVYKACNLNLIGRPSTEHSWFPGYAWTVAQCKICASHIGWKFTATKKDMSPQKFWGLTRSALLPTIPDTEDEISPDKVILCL
Protocol: as §1, §2, §3

CRBN-DDB1 (CRBN_DDB1.3) [2] = target: T1, CRBN-DDB1 (CRBN_DDB1.3); assay: Fluorescence polarization (FP) binding assay, CRBN_DDB1.3 construct; settings: 0.05% PA (no BSA); benzomorpholine binders; read-out: FP CRBN_DDB1.3 0.05% PA Ka
[3] = indoline binders, read-out: FP CRBN_DDB1.3 0.05% PA, 0.1% BSA ka nM
[4] = indoline binders, read-out: FP CRBN_DDB1.7 0.05% PA, 0.1% BSA ka nM
[5] = tetrahydroquinoline binders, read-out: FP CRBN_DDB1.7 0.05% PA, 0.1% BSA ka nM
[6] = tetrahydroquinoline binders, read-out: FP CRBN_DDB1.3 0.05% PA, 0.1% BSA ka nM
[7] = benzomorpholine binders, read-out: FP CRBN_DDB1.3 0.05% PA, 0.1% BSA Ka nM

T1 sequence (Q96SW2 318-426 limits assumed): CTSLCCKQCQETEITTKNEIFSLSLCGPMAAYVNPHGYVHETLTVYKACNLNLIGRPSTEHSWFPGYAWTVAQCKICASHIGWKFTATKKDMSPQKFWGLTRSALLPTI

SMILES	Kd (CRBN-DDB1 (CRBN_DDB1.3) [1]; [3]) [nM]	Kd (CRBN-DDB1 (CRBN_DDB1.7); [4]) [nM]	other results
CC(C)(C)OC(=O)N1CCC(c2ccc3c(c2F)CCN3[C@H]2CCC(=O)NC2=O)CC1 (single isomer, unassigned) [Compound 47-6]	< 100000	< 100000	
O=C1CCC(N2CCc3c(N4CCNCC4)cccc32)C(=O)N1 (stereo not drawn) [Compound 37-4, 3-(4-piperazin-1-ylindolin-1-yl)piperidine-2,6-dione]		< 100000	
CC(C)(C)OC(=O)N1CCC(c2c(F)cc3c(c2F)CCN3[C@H]2CCC(=O)NC2=O)CC1 (single isomer, unassigned) [Compound 50-8]	< 100000	< 100000	
O=C1CCC(N2CCOc3c(C4CCNCC4)cccc32)C(=O)N1 (stereo not drawn) [Compound 9-11, 3-[8-(4-piperidyl)-2,3-dihydro-1,4-benzoxazin-4-yl]piperidine-2,6-dione]			Kd (CRBN-DDB1 (CRBN_DDB1.3) [2]): ≤ 100 µM
O=C1CC[C@H](N2CCc3c(N4CCC(O)CC4)cccc32)C(=O)N1 (single isomer, unassigned) [Compound 43-5]		< 100000	
CC(C)(C)OC(=O)N1CCC(c2cccc3c2CCN3[C@@H]2CCC(=O)NC2=O)CC1 (single isomer, unassigned) [Compound 41-4]		< 100000	
CC(C)(C)OC(=O)N1CCC2(CC1)Cc1ccccc1N(C1CCC(=O)NC1=O)C2 (stereo not drawn) [Compound 64-7, tert-butyl 1-(2,6-dioxo-3-piperidyl)spiro[2,4-dihydroquinoline-3,4′-piperidine]-1′-carboxylate]			Kd (CRBN-DDB1 (CRBN_DDB1.7); [5]): < 100000 nM
CC(C)(C)OC(=O)N1CCC(c2cccc3c2CCCN3[C@H]2CCC(=O)NC2=O)CC1 (single isomer, unassigned) [Compound 59-6]			Kd (CRBN-DDB1 (CRBN_DDB1.3) [1]; [6]): < 100000 nM; Kd (CRBN-DDB1 (CRBN_DDB1.7); [5]): < 100000 nM
O=C1CC[C@H](N2CCc3c(N4CCC(CCO)CC4)cccc32)C(=O)N1 (single isomer, unassigned) [Compound 42-5]	< 100000	< 100000	
CN(C(=O)OC(C)(C)C)C1CCN(c2c(F)ccc3c2CCN3[C@H]2CCC(=O)NC2=O)CC1 (single isomer, unassigned) [Compound 44-8]		< 100000	
CC(C)(C)OC(=O)N1CCC(c2ccc3c(c2F)CCN3[C@@H]2CCC(=O)NC2=O)CC1 (single isomer, unassigned) [Compound 47-7]	< 100000	< 100000	
CN(C(=O)OC(C)(C)C)C1CCN(c2cccc3c2CCN3C2CCC(=O)NC2=O)CC1 (racemic) [Compound 34-5, tert-butyl (1-(1-(2,6-dioxopiperidin-3-yl)indolin-4-yl)piperidin-4-yl)(methyl)carbamate]	< 100000	< 100000	
O=C1CCC(N2C(=O)COc3c(Br)cccc32)C(=O)N1 (stereo not drawn) [Compound 33-5, 3-(8-bromo-3-oxo-1,4-benzoxazin-4-yl)piperidine-2,6-dione]			Kd (CRBN-DDB1 (CRBN_DDB1.7); benzomorpholine binders, read-out: FP CRBN_DDB1.7 0.05% PA, 0.1% BSA Ka nM): ≤ 100000 nM
CC(C)(C)OC(=O)N1CCC(c2c(F)ccc3c2CCN3[C@H]2CCC(=O)NC2=O)CC1 (single isomer, unassigned) [Compound 49-6]	< 100000	< 100000	
O=C1CCC(N2CCCc3c(N4CCC(O)CC4)cccc32)C(=O)N1 (stereo not drawn) [Compound 65-7, 3-[5-(4-hydroxy-1-piperidyl)-3,4-dihydro-2H-quinolin-1-yl]piperidine-2,6-dione]			Kd (CRBN-DDB1 (CRBN_DDB1.7); [5]): < 100000 nM
O=C1CC[C@@H](N2CCc3c(N4CCC(CCO)CC4)cccc32)C(=O)N1 (single isomer, unassigned) [Compound 42-6]	< 1000	< 1000	
O=C1CC[C@@H](N2CCc3c(N4CCC(O)CC4)cccc32)C(=O)N1 (single isomer, unassigned) [Compound 43-4]		< 1000	
CN(C(=O)OC(C)(C)C)C1CCN(c2c(F)ccc3c2CCN3[C@@H]2CCC(=O)NC2=O)CC1 (single isomer, unassigned) [Compound 44-9]		< 100000	

SMILES	Kd (CRBN-DDB1 (CRBN_DDB1.3) [1]; [3]) [nM]	Kd (CRBN-DDB1 (CRBN_DDB1.7); [4]) [nM]	other results
CC(C)(C)OC(=O)N1CCC(c2c(F)cc3c(c2F)CCN3[C@@H]2CCC(=O)NC2=O)CC1 (single isomer, unassigned) [Compound 50-9]	< 100000	< 100000	
CN(C(=O)OC(C)(C)C)[C@H]1CC[C@H](c2c(F)ccc3c2CCN3C2CCC(=O)NC2=O)CC1 (single isomer, unassigned) [Compound 46-9a, tert-butyl ((1r,4r)-4-(1-(2,6-dioxopiperidin-3-yl)-5-fluoroindolin-4-yl)cyclohexyl)(methyl)carbamate]	< 100000	< 100000	
CC(C)(C)OC(=O)N1CCC(c2cccc3c2CCN3[C@H]2CCC(=O)NC2=O)CC1 (single isomer, unassigned) [Compound 41-5]		< 1000	
CN(C(=O)OC(C)(C)C)[C@H]1CC[C@@H](c2c(F)ccc3c2CCN3C2CCC(=O)NC2=O)CC1 (single isomer, unassigned) [Compound 46-9b, tert-butyl ((1s,4s)-4-(1-(2,6-dioxopiperidin-3-yl)-5-fluoroindolin-4-yl)cyclohexyl)(methyl)carbamate]	< 100000	< 100000	
CC(C)(C)OC(=O)N1CCC(OC2CCN(c3cccc4c3CCCN4[C@@H]3CCC(=O)NC3=O)CC2)CC1 (single isomer, unassigned) [Compound 67-7]			Kd (CRBN-DDB1 (CRBN_DDB1.3) [1]; [6]): < 1000 nM
CC(C)(C)OC(=O)C1CCN(c2cccc3c2CCN3[C@@H]2CCC(=O)NC2=O)CC1 (single isomer, unassigned) [Compound 48-7]	< 100000		
O=C1CCC(N2CCOc3c([C@@H]4CCCNC4)cccc32)C(=O)N1 (stereo partly drawn) [Compound 13-11, 3-[8-[(3S)-3-piperidyl]-2,3-dihydro-1,4-benzoxazin-4-yl]piperidine-2,6-dione]			Kd (CRBN-DDB1 (CRBN_DDB1.3) [1]; [7]): ≤ 100000 nM
CC(C)(C)OC(=O)CN1CCC(c2cccc3c2CCCN3[C@H]2CCC(=O)NC2=O)CC1 (single isomer, unassigned) [Compound 60-3]			Kd (CRBN-DDB1 (CRBN_DDB1.3) [1]; [6]): < 1000 nM
CC(C)(C)OC(=O)CN1CCC(c2cccc3c2OCCN3[C@@H]2CCC(=O)NC2=O)CC1 (single isomer, unassigned) [Compound 24-4]			Kd (CRBN-DDB1 (CRBN_DDB1.3) [1]; [7]): ≤ 100000 nM
CC(C)(C)OC(=O)N1CCC(c2cccc3c2CCCN3[C@@H]2CCC(=O)NC2=O)CC1 (single isomer, unassigned) [Compound 59-5]			Kd (CRBN-DDB1 (CRBN_DDB1.3) [1]; [6]): < 100000 nM; Kd (CRBN-DDB1 (CRBN_DDB1.7); [5]): < 100000 nM
CC(C)(C)OC(=O)N1CC[C@@H]2CN(c3cccc4c3CCN4[C@H]3CCC(=O)NC3=O)CC[C@@H]21 (single isomer, unassigned) [Compound 56-8b]	< 100000		
O=C1CC[C@H](N2CCc3c(N4CCC5(CC4)OCCO5)cccc32)C(=O)N1 (single isomer, unassigned) [Compound 45-3]	< 1000	< 100000	
CC(C)(C)OC(=O)CC1(O)CCN(c2cccc3c2CCN3[C@@H]2CCC(=O)NC2=O)CC1 (single isomer, unassigned) [Compound 38-7]	< 1000		
O=C1CCC(c2cccc3c2OCCN3C2CCC(=O)NC2=O)CC1 (stereo not drawn) [Compound 5-14, 3-[8-(4-oxocyclohexyl)-2,3-dihydro-1,4-benzoxazin-4-yl]piperidine-2,6-dione]			Kd (CRBN-DDB1 (CRBN_DDB1.3) [1]; [7]): ≤ 100000 nM
O=C1CC[C@@H](N2CCc3c(N4CCC5(CC4)OCCO5)cccc32)C(=O)N1 (single isomer, unassigned) [Compound 45-4]	< 100000	< 1000	
CC(C)(C)OC(=O)N1CCC(c2c(F)ccc3c2CCN3[C@@H]2CCC(=O)NC2=O)CC1 (single isomer, unassigned) [Compound 49-7]	< 100000	< 100000	
O=C1CCN(c2cccc3c2OCCN3C2CCC(=O)NC2=O)CC1 (stereo not drawn) [Compound 6-12, 3-(8-(4-oxopiperidin-1-yl)-2,3-dihydro-4H-benzo[b][1,4]oxazin-4-yl)piperidine-2,6-dione]			Kd (CRBN-DDB1 (CRBN_DDB1.3) [1]; [7]): ≤ 100000 nM
CC(C)(C)OC(=O)N1CCN(c2cccc3c2CCCN3[C@@H]2CCC(=O)NC2=O)CC1 (single isomer, unassigned) [Compound 68-4]			Kd (CRBN-DDB1 (CRBN_DDB1.3) [1]; [6]): < 1000 nM
